Experimental data taken from ChEMBL document CHEMBL1201862, “PubChem BioAssay data set” (2004).
The source made the active and inactive calls.

Tests used:
[1] = target: 72 kDa type IV collagenase (Homo sapiens, UniProt P08253); experiment: Dose Response validation of uHTS RPN11 inhibitor hits using a MMP-2 Fluorescence assay.; assay type: functional
[2] = HEK-293T cell viability reduction – luminescence, B-cell screen hits, cytotoxicity control for BCR NF-kB inhibitor project, dose response (AID 489021); assay type: functional, cell-based;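 further: HEK-293T cells carrying an NF-kB luciferase reporter; cells exposed to compound for about 14 hours before viability readout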
[3] = target: 26S proteasome non-ATPase regulatory subunit 14 (Homo sapiens, UniProt O00487); experiment: inhibition of proteasome subunit RPN11 – biochemical, fluorescence polarization, uHTS hits, confirmation (AID 602368); assay type: functional
Prothrombin = Prothrombin (Bos taurus, UniProt P00735); experiment: thrombin protease inhibitors – biochemical, fluorescence polarization, uHTS hits, dose response (AID 602369); assay type: functional
Protein skinhead-1 = target: T1, Protein skinhead-1 (Caenorhabditis elegans, UniProt P34707); assay type: functional
T1 sequence (P34707 whole entry): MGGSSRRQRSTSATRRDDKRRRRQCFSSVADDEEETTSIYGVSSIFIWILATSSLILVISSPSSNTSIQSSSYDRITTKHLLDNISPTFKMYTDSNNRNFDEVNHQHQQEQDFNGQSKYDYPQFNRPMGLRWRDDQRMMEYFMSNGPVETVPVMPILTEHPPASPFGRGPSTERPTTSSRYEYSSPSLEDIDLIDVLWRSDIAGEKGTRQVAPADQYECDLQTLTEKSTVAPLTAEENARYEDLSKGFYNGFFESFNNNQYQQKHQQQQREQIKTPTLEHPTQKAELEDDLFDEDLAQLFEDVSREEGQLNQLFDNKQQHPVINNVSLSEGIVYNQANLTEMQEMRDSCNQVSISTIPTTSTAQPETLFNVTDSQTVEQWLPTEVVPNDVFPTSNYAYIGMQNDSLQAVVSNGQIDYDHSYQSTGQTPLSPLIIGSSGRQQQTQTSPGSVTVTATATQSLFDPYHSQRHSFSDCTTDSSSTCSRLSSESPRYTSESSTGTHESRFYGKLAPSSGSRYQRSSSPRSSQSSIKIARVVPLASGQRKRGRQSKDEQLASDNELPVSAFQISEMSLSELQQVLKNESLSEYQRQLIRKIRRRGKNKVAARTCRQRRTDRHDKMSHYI

[4] = target: T2, Sentrin-specific protease 7 (Homo sapiens, UniProt Q9BQF6); assay type: functional;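 further: Luminescence-based dose-response confirmation of ultra-high-throughput screening hits, measuring inhibition of SENP7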
T2 sequence (Q9BQF6 whole entry): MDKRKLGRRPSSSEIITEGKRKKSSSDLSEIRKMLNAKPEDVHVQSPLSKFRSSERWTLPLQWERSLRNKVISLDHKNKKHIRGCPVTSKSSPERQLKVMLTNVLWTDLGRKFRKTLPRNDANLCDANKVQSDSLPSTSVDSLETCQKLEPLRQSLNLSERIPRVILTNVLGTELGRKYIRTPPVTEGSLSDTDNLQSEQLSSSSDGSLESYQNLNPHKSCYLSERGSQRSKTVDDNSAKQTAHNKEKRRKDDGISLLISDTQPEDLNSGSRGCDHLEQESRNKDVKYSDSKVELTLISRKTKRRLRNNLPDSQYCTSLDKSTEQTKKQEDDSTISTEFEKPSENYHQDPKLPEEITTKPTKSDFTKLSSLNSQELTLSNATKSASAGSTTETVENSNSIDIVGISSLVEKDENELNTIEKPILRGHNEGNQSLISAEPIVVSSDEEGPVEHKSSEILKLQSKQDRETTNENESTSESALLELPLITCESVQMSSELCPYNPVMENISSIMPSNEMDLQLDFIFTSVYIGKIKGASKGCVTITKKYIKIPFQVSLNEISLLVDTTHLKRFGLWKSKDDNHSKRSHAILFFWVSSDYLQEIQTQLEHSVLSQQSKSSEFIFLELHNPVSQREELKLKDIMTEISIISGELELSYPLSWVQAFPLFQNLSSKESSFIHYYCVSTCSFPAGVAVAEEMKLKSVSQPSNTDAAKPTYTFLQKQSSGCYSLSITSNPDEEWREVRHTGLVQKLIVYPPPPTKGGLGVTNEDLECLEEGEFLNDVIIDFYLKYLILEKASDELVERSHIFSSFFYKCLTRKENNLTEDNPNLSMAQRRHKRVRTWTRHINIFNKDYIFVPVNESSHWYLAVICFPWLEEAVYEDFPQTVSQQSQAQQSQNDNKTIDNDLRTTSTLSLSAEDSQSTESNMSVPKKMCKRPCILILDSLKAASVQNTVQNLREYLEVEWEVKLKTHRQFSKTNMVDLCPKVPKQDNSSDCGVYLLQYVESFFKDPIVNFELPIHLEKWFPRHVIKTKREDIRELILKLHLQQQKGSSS

[5] = target: T3, Endoribonuclease toxin MazF (Escherichia coli K-12, UniProt P0AE70); experiment: activation of MazEF endoribonuclease cleavage – biochemical, fluorescence, single-stranded RNA substrate, uHTS hits, dose response (AID 588481); assay type: functional
T3 sequence (P0AE70 whole entry): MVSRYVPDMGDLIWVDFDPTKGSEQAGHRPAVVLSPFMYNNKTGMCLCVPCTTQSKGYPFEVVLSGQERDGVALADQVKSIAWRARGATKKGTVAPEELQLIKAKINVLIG

[6] = target: T4, Sentrin-specific protease 6 (Homo sapiens, UniProt Q9GZR1); assay type: functional;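 further: Luminescence-based dose-response confirmatory assay of SENP6 inhibition, following up an ultra-high-throughput screen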
T4 sequence (Q9GZR1 whole entry): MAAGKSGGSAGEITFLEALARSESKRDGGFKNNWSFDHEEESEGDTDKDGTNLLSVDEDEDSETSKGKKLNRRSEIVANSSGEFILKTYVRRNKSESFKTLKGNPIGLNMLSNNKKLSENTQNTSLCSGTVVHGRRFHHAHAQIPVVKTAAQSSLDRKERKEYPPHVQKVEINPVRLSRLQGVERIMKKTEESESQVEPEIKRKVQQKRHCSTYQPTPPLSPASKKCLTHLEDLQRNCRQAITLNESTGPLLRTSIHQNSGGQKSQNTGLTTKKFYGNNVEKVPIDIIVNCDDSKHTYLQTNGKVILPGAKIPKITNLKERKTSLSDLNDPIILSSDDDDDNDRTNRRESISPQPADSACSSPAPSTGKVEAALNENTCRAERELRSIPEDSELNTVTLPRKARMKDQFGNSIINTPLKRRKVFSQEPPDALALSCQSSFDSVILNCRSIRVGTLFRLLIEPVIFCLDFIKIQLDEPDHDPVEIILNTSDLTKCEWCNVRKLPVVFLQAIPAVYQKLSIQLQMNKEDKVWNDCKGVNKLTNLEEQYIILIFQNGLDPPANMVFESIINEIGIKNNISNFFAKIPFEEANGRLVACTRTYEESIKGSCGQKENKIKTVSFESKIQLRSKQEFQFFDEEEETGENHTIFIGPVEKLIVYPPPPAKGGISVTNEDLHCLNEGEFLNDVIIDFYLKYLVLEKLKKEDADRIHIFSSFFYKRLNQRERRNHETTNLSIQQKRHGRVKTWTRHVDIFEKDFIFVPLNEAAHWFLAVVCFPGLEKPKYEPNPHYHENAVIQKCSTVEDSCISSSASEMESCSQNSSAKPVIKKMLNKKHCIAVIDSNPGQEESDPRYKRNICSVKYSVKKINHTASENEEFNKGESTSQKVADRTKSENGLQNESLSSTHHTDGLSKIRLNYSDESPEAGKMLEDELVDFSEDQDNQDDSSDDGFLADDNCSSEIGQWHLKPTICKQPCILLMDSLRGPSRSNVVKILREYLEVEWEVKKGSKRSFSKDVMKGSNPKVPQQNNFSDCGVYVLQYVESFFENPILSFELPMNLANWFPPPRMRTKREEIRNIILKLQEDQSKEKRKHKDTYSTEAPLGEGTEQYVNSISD

Caspase-3 = target: T5, Caspase-3 (Homo sapiens, UniProt P42574); assay type: functional;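 further: Dose-response selectivity test against caspase-3 for candidate inhibitors of sentrin-specific proteases (SENPs)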
T5 sequence (P42574 whole entry): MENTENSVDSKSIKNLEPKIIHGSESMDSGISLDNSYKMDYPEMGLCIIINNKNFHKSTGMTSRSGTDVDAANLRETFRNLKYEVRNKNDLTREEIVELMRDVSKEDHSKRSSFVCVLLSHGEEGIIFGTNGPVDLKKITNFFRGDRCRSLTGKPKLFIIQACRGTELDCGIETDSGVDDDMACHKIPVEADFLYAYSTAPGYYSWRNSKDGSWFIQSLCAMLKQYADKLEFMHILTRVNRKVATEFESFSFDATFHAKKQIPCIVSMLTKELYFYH

[7] = target: T6, Sentrin-specific protease 8 (Homo sapiens, UniProt Q96LD8); assay type: functional;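 further: luminescence read-out of SENP8 inhibition, dose-response confirmation following an ultra-high-throughput screen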
T6 sequence (Q96LD8 whole entry): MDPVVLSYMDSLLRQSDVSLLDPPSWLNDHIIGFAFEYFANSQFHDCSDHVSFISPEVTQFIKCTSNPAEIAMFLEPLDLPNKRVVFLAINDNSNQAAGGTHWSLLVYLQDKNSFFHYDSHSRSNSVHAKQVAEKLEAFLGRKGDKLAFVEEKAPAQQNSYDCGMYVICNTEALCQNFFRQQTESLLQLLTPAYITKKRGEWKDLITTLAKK

[8] = target: T3, Endoribonuclease toxin MazF; experiment: substrate-only fluorescence increase artefacts – biochemical, single-stranded RNase substrate, counter-screen for MazEF activator project, dose response (AID 588502); assay type: functional
[9] = target: T7, RNA-binding protein pos-1 (Caenorhabditis elegans, UniProt G5EF15); experiment: disruptors of C. elegans POS-1 RNA interaction – biochemical, fluorescence polarization, dose response (AID 1964);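 further: purified POS-1 fused to maltose binding protein made in E. coli; potency of compounds blocking POS-1 binding to fluorescent RNA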
T7 sequence (G5EF15 whole entry): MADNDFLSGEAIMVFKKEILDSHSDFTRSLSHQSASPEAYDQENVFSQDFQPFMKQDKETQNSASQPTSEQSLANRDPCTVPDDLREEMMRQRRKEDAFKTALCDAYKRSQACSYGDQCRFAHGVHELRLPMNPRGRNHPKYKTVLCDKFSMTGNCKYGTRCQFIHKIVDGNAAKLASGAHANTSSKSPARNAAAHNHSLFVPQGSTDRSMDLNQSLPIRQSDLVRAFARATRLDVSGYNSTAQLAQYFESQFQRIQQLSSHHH

[10] = target: T8, Zinc finger protein mex-5 (Caenorhabditis elegans, UniProt Q9XUB2); experiment: potency of MEX-5 RNA-binding blockers – biochemical, C. elegans, fluorescence polarization, dose response (AID 1960)
T8 sequence (Q9XUB2 whole entry): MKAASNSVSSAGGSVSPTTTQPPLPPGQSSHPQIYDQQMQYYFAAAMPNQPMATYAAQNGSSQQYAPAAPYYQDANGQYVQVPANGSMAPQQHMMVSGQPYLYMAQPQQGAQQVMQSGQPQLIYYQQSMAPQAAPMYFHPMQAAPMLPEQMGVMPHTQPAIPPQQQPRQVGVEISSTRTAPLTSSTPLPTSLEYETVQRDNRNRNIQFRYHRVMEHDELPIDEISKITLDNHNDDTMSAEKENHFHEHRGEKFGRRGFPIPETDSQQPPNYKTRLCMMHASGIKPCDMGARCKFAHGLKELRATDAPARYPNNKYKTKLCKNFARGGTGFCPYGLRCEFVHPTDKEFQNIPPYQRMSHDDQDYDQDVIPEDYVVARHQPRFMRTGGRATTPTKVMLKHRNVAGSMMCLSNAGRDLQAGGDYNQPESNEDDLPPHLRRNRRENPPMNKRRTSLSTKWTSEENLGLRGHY

Genome polyprotein = Genome polyprotein (dengue virus type 2, UniProt P29990); experiment: flavivirus cap methylation enzyme inhibition – biochemical, confirmation dose response, primary screen (AID 588689); assay type: functional
[11] = target: T9, Hepatocyte nuclear factor 4-alpha (Homo sapiens, UniProt P41235); assay type: functional, cell-based;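 further: biochemical luminescence-based dose-response counterscreen measuring inhibition of HNF4 dimerization, run alongside a screen for blockers of ABHD5–perilipin-5 interaction; split luciferase complementation of HNF4 fusion proteins in cell lysate measuring dimerization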
T9 sequence (P41235 whole entry): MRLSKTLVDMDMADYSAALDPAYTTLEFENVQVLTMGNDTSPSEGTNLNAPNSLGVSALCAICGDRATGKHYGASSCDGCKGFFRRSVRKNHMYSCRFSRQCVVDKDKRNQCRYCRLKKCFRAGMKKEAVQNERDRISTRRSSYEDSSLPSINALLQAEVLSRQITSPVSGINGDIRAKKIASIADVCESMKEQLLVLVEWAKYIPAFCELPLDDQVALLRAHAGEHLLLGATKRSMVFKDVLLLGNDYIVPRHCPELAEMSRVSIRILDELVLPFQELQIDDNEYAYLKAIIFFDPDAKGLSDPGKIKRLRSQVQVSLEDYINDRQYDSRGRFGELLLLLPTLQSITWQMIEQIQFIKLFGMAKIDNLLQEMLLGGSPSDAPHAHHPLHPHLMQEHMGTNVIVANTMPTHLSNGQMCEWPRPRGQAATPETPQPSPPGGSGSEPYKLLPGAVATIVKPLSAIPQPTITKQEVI

Sequence of 26S proteasome non-ATPase regulatory subunit 14 (O00487 whole entry): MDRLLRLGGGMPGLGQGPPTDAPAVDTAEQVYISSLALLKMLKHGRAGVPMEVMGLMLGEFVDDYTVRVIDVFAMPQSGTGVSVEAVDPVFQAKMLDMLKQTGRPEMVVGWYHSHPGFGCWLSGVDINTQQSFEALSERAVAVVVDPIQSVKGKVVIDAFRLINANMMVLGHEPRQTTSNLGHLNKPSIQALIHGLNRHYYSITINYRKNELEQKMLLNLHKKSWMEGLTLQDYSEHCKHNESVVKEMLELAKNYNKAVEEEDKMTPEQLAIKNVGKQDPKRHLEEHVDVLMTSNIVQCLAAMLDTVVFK
Sequence of 72 kDa type IV collagenase (P08253 whole entry): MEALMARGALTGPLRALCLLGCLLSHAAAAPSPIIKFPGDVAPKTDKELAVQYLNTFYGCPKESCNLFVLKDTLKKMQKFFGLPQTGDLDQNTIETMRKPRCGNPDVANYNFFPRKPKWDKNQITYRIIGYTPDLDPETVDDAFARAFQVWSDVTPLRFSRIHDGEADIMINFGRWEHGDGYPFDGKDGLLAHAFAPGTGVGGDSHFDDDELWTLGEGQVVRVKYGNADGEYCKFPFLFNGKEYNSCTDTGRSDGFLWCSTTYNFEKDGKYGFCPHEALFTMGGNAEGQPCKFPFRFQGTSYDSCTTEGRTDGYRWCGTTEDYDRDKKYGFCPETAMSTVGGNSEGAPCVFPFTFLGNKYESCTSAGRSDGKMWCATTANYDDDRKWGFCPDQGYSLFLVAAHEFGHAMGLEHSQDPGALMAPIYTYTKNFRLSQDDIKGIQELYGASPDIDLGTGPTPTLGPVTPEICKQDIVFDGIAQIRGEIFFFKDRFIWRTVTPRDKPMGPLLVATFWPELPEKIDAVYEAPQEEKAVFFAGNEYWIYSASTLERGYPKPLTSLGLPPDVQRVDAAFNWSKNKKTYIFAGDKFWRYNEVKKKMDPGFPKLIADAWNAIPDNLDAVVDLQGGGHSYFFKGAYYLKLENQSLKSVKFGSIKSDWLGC
Sequence of Genome polyprotein (P29990 2492-3391 limits assumed): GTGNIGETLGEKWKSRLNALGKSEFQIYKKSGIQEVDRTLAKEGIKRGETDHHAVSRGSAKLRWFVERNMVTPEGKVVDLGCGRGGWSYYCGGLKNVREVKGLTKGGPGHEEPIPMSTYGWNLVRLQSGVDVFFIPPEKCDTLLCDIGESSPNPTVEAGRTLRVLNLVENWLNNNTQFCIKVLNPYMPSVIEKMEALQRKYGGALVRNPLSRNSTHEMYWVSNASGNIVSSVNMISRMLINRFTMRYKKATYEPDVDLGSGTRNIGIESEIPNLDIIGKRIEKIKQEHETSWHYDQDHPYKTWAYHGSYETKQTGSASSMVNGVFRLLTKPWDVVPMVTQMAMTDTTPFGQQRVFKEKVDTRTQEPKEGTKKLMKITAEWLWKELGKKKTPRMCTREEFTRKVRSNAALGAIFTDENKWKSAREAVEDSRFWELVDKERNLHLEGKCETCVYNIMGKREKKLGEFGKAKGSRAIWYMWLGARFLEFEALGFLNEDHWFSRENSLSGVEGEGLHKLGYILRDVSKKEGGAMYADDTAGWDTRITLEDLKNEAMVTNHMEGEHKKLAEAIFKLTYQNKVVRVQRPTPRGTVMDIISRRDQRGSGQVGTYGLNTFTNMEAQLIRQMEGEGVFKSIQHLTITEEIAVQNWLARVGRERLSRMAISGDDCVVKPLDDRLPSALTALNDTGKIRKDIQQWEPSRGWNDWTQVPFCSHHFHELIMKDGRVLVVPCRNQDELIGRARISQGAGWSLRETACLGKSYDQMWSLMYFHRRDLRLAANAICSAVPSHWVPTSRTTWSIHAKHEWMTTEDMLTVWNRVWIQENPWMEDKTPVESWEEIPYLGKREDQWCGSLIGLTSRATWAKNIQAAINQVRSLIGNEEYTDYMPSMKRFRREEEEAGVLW

For `COc1ccc(/C=C2/SC(=S)N(CCCC(=O)Nc3ccc(O)cc3)C2=O)cc1OC`, the IC50 [1] was > 100 µM (inactive), the IC50 [2] was > 80 µM (inactive) and the IC50 [3] was 25.2 µM (active). The IC50 (Prothrombin) was 31.8 µM (active).

With `CN(C)c1ccc(C(=O)/C=C/c2ccccc2)cc1` the IC50 (Protein skinhead-1) was > 100 µM (inactive), the IC50 [4] was 5.32 µM (active) and the EC50 [5] was > 99 µM (inactive). For the same molecule, the IC50 [6] was 11.6 µM (active), the IC50 (Caspase-3) was 8.33 µM (active) and the IC50 [7] was 14.3 µM (active). The EC50 [8] was > 99 µM (inactive).

In the case of `CCOc1ccc(N2C(=O)/C(=C/Nc3ccnn3Cc3ccncc3)c3ccccc3C2=O)cc1`, the IC50 [1] is reported as > 100 µM (inactive), the IC50 [3] is reported as 23.9 µM (active) and the EC50 [9] is reported as > 300 µM (not active). For the same molecule, the EC50 [10] was > 300 µM (not active) and the IC50 (Prothrombin) was 24.6 µM (active).

In the case of `COc1cc(/C=C2/SC(=S)N(CC(=O)Nc3nc4ccccc4s3)C2=O)cc(OC)c1OC`, the IC50 [1] is reported as > 100 µM (inactive), the IC50 [3] is reported as 20.2 µM (active) and the IC50 (Prothrombin) is reported as 23.5 µM (active).

With `CC(=O)OCC1=C(C(=O)O)N2C(=O)C(NC(=O)CCn3nc(C(F)(F)F)c(Br)c3C3CC3)C2SC1` (stereo not given) the IC50 (Genome polyprotein) was 54.8 µM (active) and the IC50 [11] was 17.7 µM (inactive).

For `CCCCn1c(/N=C/c2ccc(N(C)C)cc2)nc2ccccc21`, the IC50 [1] was > 100 µM (inactive), the IC50 [3] was 5.14 µM (active) and the IC50 (Prothrombin) was 7.12 µM (active).

With `O=C(NCc1ccccc1)C(c1ccc(-c2ccccc2)cc1)n1c(=O)c(-c2ccco2)nc2ccccc21` (stereo not given) the IC50 [11] was 3.34 µM (active).
